Reference: patent publication US5652262A, “Hydroxamic acid derivatives as metalloproteinase inhibitors” (British Biotech Pharmaceutical, Ltd., priority 1993, dated 1997)

Columns and labels:
[1] = test system: rat adjuvant arthritis model; assay: Rat adjuvant arthritis model, hindpaw oedema volume; assay type: in vivo; details: male Lewis rats, two doses of 10 mg/kg orally each day, day 13 to day 17
Experimental: The compound of Example 1 was tested in a rat adjuvant arthritis model.
Adjuvant arthritis was produced in male Lewis rats (Charles River) by a single intradermal injection of 0.75 mg of M. butyricum in light parafin oil (Freund's complete adjuvant) into the base of the tail. The "secondary" lesion occurs after a delay of 10 days, and is characterised by inflammation of the hindpaws. Hindpaw oedema volumes were measured plethysmographically by water displacement. Animals in the treated groups received two doses of 10 mg/kg of the test compound in PBS/0.1% Tween orally, each day, from day 13 to day 17. Results are reported as paw volume change from the volume measured on day 13.

[2] = biological target: T1, collagenase (Homo sapiens, UniProt P03956); assay: Inhibition of collagenase (procedure of Cawston and Barrett, acetylated 14C collagen); assay type: biochemical; details: 37°, 16 hours, pH 7.5
T1 sequence (P03956 100-469): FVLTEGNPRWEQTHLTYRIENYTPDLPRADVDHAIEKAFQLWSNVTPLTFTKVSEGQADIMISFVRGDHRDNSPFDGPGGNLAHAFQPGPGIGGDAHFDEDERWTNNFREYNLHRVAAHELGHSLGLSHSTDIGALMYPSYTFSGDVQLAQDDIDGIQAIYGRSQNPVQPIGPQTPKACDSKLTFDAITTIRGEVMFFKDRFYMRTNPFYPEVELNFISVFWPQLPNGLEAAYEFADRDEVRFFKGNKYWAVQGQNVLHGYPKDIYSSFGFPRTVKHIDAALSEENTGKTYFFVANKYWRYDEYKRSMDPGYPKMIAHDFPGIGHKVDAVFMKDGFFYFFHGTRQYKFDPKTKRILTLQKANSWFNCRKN
Experimental: The potency of compounds of the invention as inhibitors of collagenase was determined by the procedure of Cawston and Barrett, (Anal. Biochem., 99, 340-345, 1979), hereby incorporated by reference, whereby a 1 mM solution of the compound being tested, or a dilution thereof, was incubated at 37° for 16 hours with collagen and collagenase (buffered with 25 mM Hepes, pH 7.5 containing 5 mM CaCl2, 0.05% Brij 35 and 0.02% NaN3). The collagen was acetylated ^14 C collagen prepared by the method of Cawston and Murphy, (Methods in Enzymology, 80, 711, 1981), hereby incorporated by reference. The samples were centrifuged to sediment undigested collagen, and an aliquot of the radioactive supernatant removed for assay on a scintillation counter as a measure of hydrolysis.

[3] = Systemic blood concentration of inhibitor over 24 hours after oral dosing in rats, by collagenase inhibitory activity of blood extracts; assay type: in vivo, rat; details: 10 mg/kg in PBS/0.1% Tween 80 by gavage, male rats, 0.5-24 hours, drug plus any active metabolites, collagenase assay
Experimental: The biological efficacy of a compound of the invention in chronic disease states is a function of the systemic blood concentration maintained over time, and its intrinsic potency. These factors can be quantified as IC50.hrs (24 hrs), which parameter is defined as the total number of IC50 s in the blood over the 24 hours post dosing, the IC50 being defined as the concentration of the compound that reduces collagenase activity to 50% of its normal value.:
Test compounds were administered at 10 mg/kg in PBS/0.1% Tween 80 by gavage to 6 male rats (300 g) per treatment group. Blood samples were removed by tail venepuncture at 0.5, 1.0, 2.0, 6.0 and 24 hours post administration. 0.5 ml of blood was placed into 4.5 ml tubes containing 0.1 ml acid citrate dextrose (ACD) as anti-coagulant. For extraction, 3 ml methanol was added and the precipitated blood pelletted by centrifugation (30 min at 3000 rpm). A 2 ml aliquot of supernatant was removed and dried by lyophilisation. The extract was redissolved in 200 μl DMSO and a 10 μl aliquot assayed for collagenase inhibitory activity. The inhibitory activity in the extracts was determined using the collagenase assay described in Biological Example A above, and the concentration of inhibitor (that is drug plus any active metabolites) obtained by comparison with standard curves. […]

[4] = biological target: stromelysin (Homo sapiens, UniProt P08254); assay: Inhibition of stromelysin (procedure of Cawston et al, acetylated 14C casein); assay type: biochemical; details: 37°, 16 hours, pH 7.5
Chain of stromelysin (P08254 100-477): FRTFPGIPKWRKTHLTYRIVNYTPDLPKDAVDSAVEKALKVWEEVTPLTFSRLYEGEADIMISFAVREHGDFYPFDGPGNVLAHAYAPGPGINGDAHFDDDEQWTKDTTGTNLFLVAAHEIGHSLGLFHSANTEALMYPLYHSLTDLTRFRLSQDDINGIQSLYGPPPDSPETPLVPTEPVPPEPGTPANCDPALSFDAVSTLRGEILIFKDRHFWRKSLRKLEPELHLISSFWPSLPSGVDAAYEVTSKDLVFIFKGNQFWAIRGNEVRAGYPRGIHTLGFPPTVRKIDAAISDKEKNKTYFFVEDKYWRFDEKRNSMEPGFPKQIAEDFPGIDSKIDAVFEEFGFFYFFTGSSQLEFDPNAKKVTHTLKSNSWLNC
Experimental: The potency of compounds of the invention as inhibitors of stromelysin was determined by the procedure of Cawston et al, (Biochem. J., 195, 159-165, 1981), hereby incorporated by reference, whereby a 1 mM solution of the compound being tested, or a dilution thereof, was incubated at 37° for 16 hours with stromelysin and ^14 C acetylate casein (buffered with 25 mM Hepes, pH 7.5 containing 5 mM CaCl2, 0.05% Brij 35 and 0.02% NaN3). The casein was acetylated ^14 C casein prepared by the method of Cawston et al (ibid).

IC50 [2]	AUC (IC50.hrs (24hrs)) [3]	IC50 [4]	SMILES	paw volume change, Day 17 (% relative to day 13) ([1]; Day 17)	paw volume change, Day 20 (% relative to day 13) ([1]; Day 20)
10 nM	233 IC50.hrs		C=CC[C@H](C(=O)NO)[C@@H](CC(C)C)C(=O)N[C@@H](Cc1ccccc1)C(=O)NC [Example 1, 3R-(2-Phenyl-1S-methylcarbamoyl-ethylcarbamoyl)-5-methyl-2S-2-propenyl-hexanohydroxamic acid]	52%	65%
3 to 4 nM	970 IC50.hrs	80 nM	C=CC[C@H](C(=O)NO)[C@@H](CC(C)C)C(=O)N[C@H](C(=O)NC)C(C)(C)C [Example 5, 3R-(2,2-Dimethyl-1S-methylcarbamoyl-propylcarbamoyl)-5-methyl-2S-2-propenyl-hexanohydroxamic acid]		
10 nM		5 nM	C=CC[C@H](C(=O)NO)[C@@H](CC(C)C)C(=O)N[C@@H](Cc1ccccc1)C(=O)NCc1ccccc1 [Example 7, 3R-(2-Phenyl-1S-phenylmethylcarbamoyl-ethylcarbamoyl)-5-methyl-2S-2-propenyl-hexanohydroxamic acid]		
